Legend:
[1] = test system: Cdk1 phosphorylated on tyrosine 15; assay: High-content imaging of pCdk1 Y15 by immunofluorescence in ACHN cells; assay type: cell-based; details: Homo sapiens, high-content imaging (IF), 4 h, 7 to 5000 nM, read-out: CDK1 Tyr15 Phosphorylation EC50 (IC50)
Method: ACHN renal cell carcinoma cell line (ATCC) was cultured in Minimum Essential Medium Eagle supplemented with 10% fetal calf serum (Sigma), 1% Penicillin-Streptomycin and 10 mM HEPES buffer (HyClone). Cell cultures were kept in a humidified incubator at 37° C. and 5% CO2. Cells were routinely tested for Mycoplasma contamination.
High-content imaging of ACHN renal cell carcinoma cells was used for quantification of CDK1 phosphorylated on tyrosine 15 by immunofluorescence (“IF”). 20 000 cells per well were seeded in tissue culture treated 96 well plates and treated with compounds at concentrations ranging from 7 to 5000 nM for 4 h. Cells were fixated for 15 minutes in 4% paraformaldehyde solution, washed in PBS and permeabilized using 0.2% Triton X-100. Blocking was performed for 1 h at RT using Blocker FL Fluorescent Blocking Buffer (Thermo Scientific), thereafter cells were incubated with primary antibody (rabbit anti-pCDK1 Y^15, #4539, Cell Signaling Technology) at 4° C. ON. Alexa Fluor Plus 647 labelled goat anti-rabbit (A32733. Thermo Scientific) was used as secondary antibody. After washing in PBS, nuclei were stained with DAPI solution for 10 min at RT, protected from light. Cells were imaged using an ImageXpress Pico automated imaging system and CellReporter Xpress software (Molecular Devices). The percentage cells with nuclear positivity for pCdk1 Y^15 compared to DMSO control was determined for each well and drug dose response curves and EC50 values were calculated and visualized using GraphPad Prism.

[2] = target: T1, recombinant human Wee1A kinase (Homo sapiens, UniProt P30291); assay: LanthaScreen Europium (Eu) Kinase Binding Assay, Wee1A kinase (TR-FRET tracer displacement); details: 30 nM tracer 178, 5 nM Wee1A kinase, 60 minutes at room temperature
T1 construct: full length Wee1A kinase was expressed by baculovirus in insect cells; purchased Invitrogen PV3817; host or cells: insect cells (baculovirus)
T1 sequence (P30291 whole entry): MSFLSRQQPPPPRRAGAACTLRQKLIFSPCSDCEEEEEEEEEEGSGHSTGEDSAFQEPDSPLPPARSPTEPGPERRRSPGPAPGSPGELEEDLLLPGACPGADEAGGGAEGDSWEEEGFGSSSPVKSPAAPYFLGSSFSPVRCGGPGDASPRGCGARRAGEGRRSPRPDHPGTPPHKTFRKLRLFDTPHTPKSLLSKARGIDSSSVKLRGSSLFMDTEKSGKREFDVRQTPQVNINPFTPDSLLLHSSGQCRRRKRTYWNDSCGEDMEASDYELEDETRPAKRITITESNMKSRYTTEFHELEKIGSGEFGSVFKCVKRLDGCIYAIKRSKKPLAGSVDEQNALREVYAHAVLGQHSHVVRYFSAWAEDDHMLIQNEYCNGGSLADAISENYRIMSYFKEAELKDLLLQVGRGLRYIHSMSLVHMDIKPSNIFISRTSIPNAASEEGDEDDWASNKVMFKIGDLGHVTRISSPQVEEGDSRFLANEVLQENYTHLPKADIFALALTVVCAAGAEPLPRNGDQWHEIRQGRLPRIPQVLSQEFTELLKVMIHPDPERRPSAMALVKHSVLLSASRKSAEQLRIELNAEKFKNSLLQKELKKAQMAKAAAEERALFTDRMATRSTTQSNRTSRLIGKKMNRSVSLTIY
Description: We used a LanthaScreen Europium (Eu) Kinase Binding Assay to determine the binding of provided compounds to Wee1A kinase. The assay utilizes an Alexa Fluor 647-labeled ATP competitive kinase tracer that binds to the ATP binding site of a GST-tagged Wee1A kinase, while a europium (Eu) labeled antibody binds to the GST tag. The proximity of fluorescently labeled kinase tracer and europium (Eu) donor fluorophore antibody leads to fluorescence resonance energy transfer (FRET) to the fluorescence label (acceptor) upon excitation of the Eu (donor). Displacement of tracer from the ATP-binding site by a test compound disturbs the proximity between both labels thus lowering the FRET.
This time resolved-FRET binding assay was performed in white 384-well low volume plates (Greiner, cat #784075), at room temperature in kinase buffer A (KBA; Invitrogen cat #PV3189), consisting of 50 mM HEPES-NaOH (pH 7.5), 0.01% Brij-35, 10 mM MgCl2, and 1 mM EGTA. 5 μl of compound (diluted in reaction buffer, to 1% DMSO) were added to various wells in the plate, followed by 5 μl each of recombinant human Wee1A kinase (full length Wee1A kinase was expressed by baculovirus in insect cells using a N-terminal GST tag (MW: 99.1 kDa) (Invitrogen cat #PV3817) and LanthaScreen Eu-anti-GST antibody (Invitrogen, cat #PV5594). After this, 5 μl of kinase tracer 178 (Invitrogen, cat #PV5593) was added to the plate and the plate was incubated for 60 minutes at room temperature. The final assay conditions in each well were: 30 nM tracer 178, 5 nM Wee1A kinase and 2 nM Eu-labeled antibody in total assay volume of 15 μl. An Envision 2104 (Perkin-Elmer) Plate Reader with the following time-resolve fluorescence setting was used for performing LanthaScreen kinase binding assay. • Excitation 320 nm (30 nm bandpass) • Kinase Tracer Emission 665 nm (10 nm bandpass) • LanthaScreen Eu-anti-Tag Antibody Emission 615 nm (10 nm bandpass) • Dichroic Mirror Instrument dependent • Delay Time 100 μs • Integration Time 200 μs
To calculate the emission ratio, the acceptor/tracer emission ([…]) was divided by the antibody/donor emission ([…]) and the average of duplicate measurement was used for calculations. Data plotting, analysis of binding, and curve fitting was done using Excel add-in XLfit version 5.5.0.5 (IDBS, Guildford, United Kingdom).

CCOc1nc(Nc2cnn([C@@H](C)CNC)c2)ncc1C(=O)Nc1c(Cl)cccc1Br [Compound 201, N-(2-bromo-6-chlorophenyl)-2-{1-[(S)-1-methyl-2-(methylamino)ethyl]-4-pyrazolylamino}-4-ethoxy-5-pyrimidinecarboxamide]
EC50 [1]: > 1000 nM | IC50 [2]: ≤ 10 nM

COc1nc(Nc2ccc(C3CCN(C)CC3)c(C)c2)ncc1C(=O)Nc1c(Cl)cccc1C#N [Compound 137, N-(2-chloro-6-cyanophenyl)-4-methoxy-2-((3-methyl-4-(1-methylpiperidin-4-yl)phenyl)amino)pyrimidine-5-carboxamide]
EC50 [1]: > 1000 nM | IC50 [2]: 10 to 100 nM

COc1nc(Nc2cnn(C[C@H]3CCNC3)c2)ncc1C(=O)Nc1c(Cl)cccc1Cl [Compound 165]
EC50 [1]: > 1000 nM | IC50 [2]: 10 to 100 nM

COc1nc(Nc2ccc(C3CCN(C)CC3)c(C)c2)ncc1C(=O)Nc1c(C)cccc1Cl [Compound 106, N-(2-chloro-6-methylphenyl)-4-methoxy-2-((3-methyl-4-(1-methylpiperidin-4-yl)phenyl)amino)pyrimidine-5-carboxamide]
EC50 [1]: 100 to 500 nM | IC50 [2]: ≤ 10 nM

COc1nc(Nc2ccc(C3CCN(C)CC3)c(C)c2)ncc1C(=O)Nc1c(F)cccc1Cl [Compound 113, N-(2-chloro-6-fluorophenyl)-4-methoxy-2-((3-methyl-4-(1-methylpiperidin-4-yl)phenyl)amino)pyrimidine-5-carboxamide]
EC50 [1]: 100 to 500 nM | IC50 [2]: ≤ 10 nM

COc1nc(Nc2ccc(C3CCN(C)CC3)c(C)c2)ncc1C(=O)Nc1ccccc1Br [Compound 107, N-(2-bromophenyl)-4-methoxy-2-((3-methyl-4-(1-methylpiperidin-4-yl)phenyl)amino)pyrimidine-5-carboxamide]
EC50 [1]: > 1000 nM | IC50 [2]: ≤ 10 nM

COc1nc(Nc2ccc(C3CCN(C)CC3)c(C)c2)ncc1C(=O)Nc1c(Cl)cc(F)cc1Cl [Compound 121, N-(2,6-dichloro-4-fluorophenyl)-4-methoxy-2-((3-methyl-4-(1-methylpiperidin-4-yl)phenyl)amino)pyrimidine-5-carboxamide]
EC50 [1]: 100 to 500 nM | IC50 [2]: ≤ 10 nM

COc1nc(Nc2ccc(OCCCN3CCOCC3)c(C)c2)ncc1C(=O)Nc1c(Cl)cccc1Cl [Compound 148, N-(2,6-dichlorophenyl)-4-methoxy-2-((3-methyl-4-(3-morpholinopropoxy)phenyl)amino)pyrimidine-5-carboxamide]
EC50 [1]: > 1000 nM | IC50 [2]: ≤ 10 nM

COc1cc(Nc2ncc(C(=O)Nc3c(Cl)cccc3Br)c(OC)n2)ccc1C1CCN(C)CC1 [Compound 216, N-(2-bromo-6-chlorophenyl)-4-methoxy-2-((3-methoxy-4-(1-methylpiperidin-4-yl)phenyl)amino)pyrimidine-5-carboxamide]
EC50 [1]: 100 to 500 nM | IC50 [2]: ≤ 10 nM

Cc1cc(Nc2ncc(C(=O)Nc3c(Cl)cccc3Cl)c(OCC(F)(F)F)n2)ccc1C1CCN(C)CC1 [Compound 104, N-(2,6-dichlorophenyl)-2-{[3-methyl-4-(1-methylpiperidin-4-yl)phenyl]amino}-4-(2,2,2-trifluoroethoxy)pyrimidine-5-carboxamide]
EC50 [1]: 100 to 500 nM | IC50 [2]: ≤ 10 nM

COc1nc(Nc2ccc(OC3CCNCC3)c(C)c2)ncc1C(=O)Nc1c(Cl)cccc1Br [Compound 219]
EC50 [1]: 100 to 500 nM | IC50 [2]: ≤ 10 nM

COc1nc(Nc2ccc([C@H]3CCN(C)C3)c(C)c2)ncc1C(=O)Nc1c(Cl)cccc1Br [Compound 192]
EC50 [1]: 100 to 500 nM | IC50 [2]: ≤ 10 nM

COc1nc(Nc2ccc(N3CCN(C)CCC3=O)cc2)ncc1C(=O)Nc1c(Cl)cccc1Cl [Compound 185, N-(2,6-dichlorophenyl)-4-methoxy-2-((4-(4-methyl-7-oxo-1,4-diazepan-1-yl)phenyl)amino)pyrimidine-5-carboxamide]
EC50 [1]: 100 to 500 nM | IC50 [2]: ≤ 10 nM

COc1cccc(Cl)c1NC(=O)c1cnc(Nc2ccc(C3CCN(C)CC3)c(C)c2)nc1OC [Compound 130, N-(2-chloro-6-methoxyphenyl)-4-methoxy-2-((3-methyl-4-(1-methylpiperidin-4-yl)phenyl)amino)pyrimidine-5-carboxamide]
EC50 [1]: > 1000 nM | IC50 [2]: ≤ 10 nM

COc1nc(Nc2cnn(C)c2)ncc1C(=O)Nc1c(Cl)ccc(O)c1Cl [Compound 223, N-(2,6-dichloro-3-hydroxyphenyl)-4-methoxy-2-((1-methyl-1H-pyrazol-4-yl)amino)pyrimidine-5-carboxamide]
EC50 [1]: > 1000 nM | IC50 [2]: ≤ 10 nM

CN1CCN(c2ccc(Nc3ncc(C(=O)Nc4c(Cl)cccc4Cl)c(OC4CC4)n3)cc2)CC1 [Compound 102, 4-cyclopropoxy-N-(2,6-dichlorophenyl)-2-((4-(4-methylpiperazin-1-yl)phenyl)amino)pyrimidine-5-carboxamide]
EC50 [1]: 100 to 500 nM | IC50 [2]: ≤ 10 nM

COc1nc(Nc2ccc(OCCCN(C)C)c(C)c2)ncc1C(=O)Nc1c(Cl)cccc1Cl [Compound 147, N-(2,6-dichlorophenyl)-2-((4-(3-(dimethylamino)propoxy)-3-methylphenyl)amino)-4-methoxypyrimidine-5-carboxamide]
EC50 [1]: > 1000 nM | IC50 [2]: ≤ 10 nM

COc1nc(Nc2ccc(OCCN3CCOCC3)c(C)c2)ncc1C(=O)Nc1c(Cl)cccc1Cl [Compound 144, N-(2,6-dichlorophenyl)-4-methoxy-2-((3-methyl-4-(2-morpholinoethoxy)phenyl)amino)pyrimidine-5-carboxamide]
EC50 [1]: > 1000 nM | IC50 [2]: ≤ 10 nM

COc1nc(Nc2ccc(OCCN(C)C)c(C)c2)ncc1C(=O)Nc1c(Cl)cccc1Cl [Compound 143, N-(2,6-dichlorophenyl)-2-((4-(2-(dimethylamino)ethoxy)-3-methylphenyl)amino)-4-methoxypyrimidine-5-carboxamide]
EC50 [1]: 100 to 500 nM | IC50 [2]: ≤ 10 nM

COc1nc(Nc2ccc([C@@H]3CCN(C)C3)c(C)c2)ncc1C(=O)Nc1c(Cl)cccc1Br [Compound 193]
EC50 [1]: ≤ 100 nM | IC50 [2]: ≤ 10 nM

CCOc1cc(Nc2ncc(C(=O)Nc3c(Cl)cccc3Br)c(OC)n2)ccc1C1CCN(C)CC1 [Compound 217, N-(2-bromo-6-chlorophenyl)-2-((3-ethoxy-4-(1-methylpiperidin-4-yl)phenyl)amino)-4-methoxypyrimidine-5-carboxamide]
EC50 [1]: 100 to 500 nM | IC50 [2]: ≤ 10 nM

COc1nc(Nc2ccc(C3CCN(C)CC3)c(Cl)c2)ncc1C(=O)Nc1c(Cl)cccc1Br [Compound 215, N-(2-bromo-6-chlorophenyl)-2-[3-chloro-4-(1-methyl-4-piperidyl)phenylamino]-4-methoxy-5-pyrimidinecarboxamide]
EC50 [1]: 100 to 500 nM | IC50 [2]: ≤ 10 nM

COc1nc(Nc2cnn(C)c2)ncc1C(=O)Nc1c(C)ccc(O)c1C [Compound 224, N-(3-hydroxy-2,6-xylyl)-4-methoxy-2-(1-methyl-4-pyrazolylamino)-5-pyrimidinecarboxamide]
EC50 [1]: > 1000 nM | IC50 [2]: ≤ 10 nM

COc1nc(Nc2ccc(N3CCNCCC3=O)c(C)c2)ncc1C(=O)Nc1c(Cl)cccc1Cl [Compound 167]
EC50 [1]: 100 to 500 nM | IC50 [2]: ≤ 10 nM

COc1nc(Nc2ccc(C3CCN(C)CC3)c(C)c2)ncc1C(=O)Nc1c(Cl)ccc(F)c1F [Compound 125, N-(6-chloro-2,3-difluorophenyl)-4-methoxy-2-((3-methyl-4-(1-methylpiperidin-4-yl)phenyl)amino)pyrimidine-5-carboxamide]
EC50 [1]: > 1000 nM | IC50 [2]: ≤ 10 nM
